Test results taken from ChEMBL document CHEMBL1201862, “PubChem BioAssay data set” (2004).
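Five compound concentrations were applied to cells in 96-well plates for 48 hours; endpoints were derived by simple linear interpolation of the resulting dose-response curve. GI50 marks 50% less growth.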 Active and inactive are the calls of the source. Cut-off read from the data, not from the text of the source: active = GI50 up to about 1.1 µM and inactive = higher.

Tests used:
Assay in all cases: inhibition of tumour cell growth, NCI panel, 48 h
LXFL 529 = system: LXFL 529
OVCAR-3 = system: OVCAR-3
NCI-H460 = system: NCI-H460
NCI-H23 = system: NCI-H23
K562 = system: K562
TK-10 = system: TK-10
ACHN = system: ACHN
UACC-257 = system: UACC-257
UACC-62 = system: UACC-62
HCT-116 = system: HCT-116
NCI-H522 = system: NCI-H522
CAKI-1 = system: CAKI-1
IGROV-1 = system: IGROV-1
HT-29 = system: HT-29
KM-20L2 = system: KM-20L2
SN12C = system: SN12C
NCI-H226 = system: NCI-H226
MDA-MB-435 = system: MDA-MB-435
BT-549 = system: BT-549
PC-3 = system: PC-3

CCCCCC/C=C/CCCCCCCc1cccc(O)c1C(=O)O
GI50 (LXFL 529): 45.4 µM (inactive)
GI50 (OVCAR-3): 42.3 µM (inactive)
GI50 (NCI-H460): 9.75 µM (inactive)
GI50 (NCI-H23): 38.5 µM (inactive)
GI50 (K562): 37.2 µM (inactive)
GI50 (TK-10): 70.3 µM (inactive)
GI50 (ACHN): 85.5 µM (inactive)
GI50 (UACC-257): 49.4 µM (inactive)
GI50 (UACC-62): 36.4 µM (inactive)
GI50 (HCT-116): > 100 µM (inactive)
GI50 (NCI-H522): 52.8 µM (inactive)
GI50 (CAKI-1): > 100 µM (inactive)
GI50 (IGROV-1): 44.9 µM (inactive)
GI50 (HT-29): 14.4 µM (inactive)
GI50 (KM-20L2): > 100 µM (inactive)

O=C(COC(=O)c1cccc2c(=O)c3ccccc3[nH]c12)Nc1ccc(C(=O)O)cc1
GI50 (SN12C): > 100 µM (inactive)
GI50 (OVCAR-3): 50 µM (inactive)
GI50 (NCI-H460): > 100 µM (inactive)
GI50 (NCI-H23): > 100 µM (inactive)
GI50 (K562): 70.6 µM (inactive)
GI50 (TK-10): > 10 µM (inactive)
GI50 (ACHN): > 100 µM (inactive)
GI50 (UACC-257): > 100 µM (inactive)
GI50 (UACC-62): 71 µM (inactive)
GI50 (HCT-116): 84.7 µM (inactive)
GI50 (NCI-H522): 43.7 µM (inactive)
GI50 (CAKI-1): > 100 µM (inactive)
GI50 (IGROV-1): 99.1 µM (inactive)
GI50 (HT-29): > 100 µM (inactive)
GI50 (KM-20L2): > 100 µM (inactive)
GI50 (NCI-H226): > 10 µM (inactive)

CN(C)CC/C(=N\Nc1ccc([N+](=O)[O-])cc1)c1ccccc1
GI50 (SN12C): 10.9 µM (inactive)
GI50 (LXFL 529): 5.83 µM (inactive)
GI50 (OVCAR-3): 16.3 µM (inactive)
GI50 (NCI-H460): 9.48 µM (inactive)
GI50 (NCI-H23): 13.3 µM (inactive)
GI50 (K562): 3.48 µM (inactive)
GI50 (TK-10): 4.14 µM (inactive)
GI50 (ACHN): 2.61 µM (inactive)
GI50 (UACC-257): 16.8 µM (inactive)
GI50 (UACC-62): 12.9 µM (inactive)
GI50 (HCT-116): 11.7 µM (inactive)
GI50 (NCI-H522): 13.9 µM (inactive)
GI50 (IGROV-1): 11 µM (inactive)
GI50 (HT-29): 9.23 µM (inactive)
GI50 (KM-20L2): 4.33 µM (inactive)

O=C1Oc2cc3c(c4cccc1c24)OCN(c1ccc(Cl)cc1)C3
GI50 (SN12C): 13.6 µM (inactive)
GI50 (LXFL 529): 0.622 µM (active)
GI50 (OVCAR-3): 12 µM (inactive)
GI50 (NCI-H460): 2.31 µM (inactive)
GI50 (NCI-H23): 18.8 µM (inactive)
GI50 (K562): 0.923 µM (active)
GI50 (TK-10): > 100 µM (inactive)
GI50 (ACHN): 3.13 µM (inactive)
GI50 (UACC-257): 34.9 µM (inactive)
GI50 (UACC-62): 4.79 µM (inactive)
GI50 (HCT-116): 11.3 µM (inactive)
GI50 (NCI-H522): 15.2 µM (inactive)
GI50 (CAKI-1): 38.8 µM (inactive)
GI50 (IGROV-1): > 100 µM (inactive)
GI50 (HT-29): 11.4 µM (inactive)
GI50 (NCI-H226): > 100 µM (inactive)

On1c(-c2ccccc2)c(-c2c(-c3ccccc3)n(O)c3ccccc23)c2ccccc21
GI50 (SN12C): 46.3 µM (inactive)
GI50 (LXFL 529): 3.18 µM (inactive)
GI50 (OVCAR-3): 38 µM (inactive)
GI50 (NCI-H460): 23.4 µM (inactive)
GI50 (NCI-H23): 27.3 µM (inactive)
GI50 (K562): 36.6 µM (inactive)
GI50 (TK-10): 38 µM (inactive)
GI50 (ACHN): 29.9 µM (inactive)
GI50 (UACC-257): 26.5 µM (inactive)
GI50 (UACC-62): 55.3 µM (inactive)
GI50 (HCT-116): 48.5 µM (inactive)
GI50 (NCI-H522): 22.8 µM (inactive)
GI50 (HT-29): 45.7 µM (inactive)
GI50 (NCI-H226): 17.7 µM (inactive)

Cc1ccccc1C(CCCO)C(=O)O (centres undefined)
GI50 (SN12C): > 100 µM (inactive)
GI50 (LXFL 529): > 100 µM (inactive)
GI50 (OVCAR-3): > 100 µM (inactive)
GI50 (NCI-H460): > 100 µM (inactive)
GI50 (NCI-H23): > 100 µM (inactive)
GI50 (K562): > 100 µM (inactive)
GI50 (TK-10): > 100 µM (inactive)
GI50 (ACHN): > 100 µM (inactive)
GI50 (UACC-257): > 100 µM (inactive)
GI50 (UACC-62): > 100 µM (inactive)
GI50 (HCT-116): > 100 µM (inactive)
GI50 (NCI-H522): > 100 µM (inactive)
GI50 (CAKI-1): > 100 µM (inactive)
GI50 (IGROV-1): > 100 µM (inactive)
GI50 (HT-29): > 100 µM (inactive)

COC(=O)N/N=C(\Cc1ccccc1)CN(C)C
GI50 (LXFL 529): > 100 µM (inactive)
GI50 (OVCAR-3): > 100 µM (inactive)
GI50 (NCI-H460): > 100 µM (inactive)
GI50 (NCI-H23): > 100 µM (inactive)
GI50 (K562): > 100 µM (inactive)
GI50 (TK-10): > 100 µM (inactive)
GI50 (ACHN): > 100 µM (inactive)
GI50 (UACC-257): > 100 µM (inactive)
GI50 (UACC-62): > 100 µM (inactive)
GI50 (HCT-116): > 100 µM (inactive)
GI50 (NCI-H522): > 100 µM (inactive)
GI50 (IGROV-1): > 100 µM (inactive)
GI50 (HT-29): > 100 µM (inactive)
GI50 (KM-20L2): > 100 µM (inactive)

CC1=N/C(=C\c2ccc([N+](=O)[O-])cc2)C(=O)O1
GI50 (SN12C): > 100 µM (inactive)
GI50 (LXFL 529): > 100 µM (inactive)
GI50 (OVCAR-3): > 100 µM (inactive)
GI50 (NCI-H460): > 100 µM (inactive)
GI50 (NCI-H23): > 100 µM (inactive)
GI50 (K562): > 100 µM (inactive)
GI50 (TK-10): > 100 µM (inactive)
GI50 (ACHN): > 100 µM (inactive)
GI50 (UACC-257): > 100 µM (inactive)
GI50 (UACC-62): > 100 µM (inactive)
GI50 (HCT-116): > 100 µM (inactive)
GI50 (NCI-H522): > 100 µM (inactive)
GI50 (IGROV-1): > 100 µM (inactive)
GI50 (HT-29): > 100 µM (inactive)
GI50 (KM-20L2): > 100 µM (inactive)

COC(=O)C1CC2(CC3=C1CCCC3)OCCO2 (centres undefined)
GI50 (SN12C): > 100 µM (inactive)
GI50 (LXFL 529): > 100 µM (inactive)
GI50 (OVCAR-3): > 100 µM (inactive)
GI50 (NCI-H460): > 100 µM (inactive)
GI50 (NCI-H23): > 100 µM (inactive)
GI50 (K562): > 100 µM (inactive)
GI50 (TK-10): > 100 µM (inactive)
GI50 (UACC-257): > 100 µM (inactive)
GI50 (UACC-62): > 100 µM (inactive)
GI50 (HCT-116): > 100 µM (inactive)
GI50 (NCI-H522): > 100 µM (inactive)
GI50 (CAKI-1): > 100 µM (inactive)
GI50 (IGROV-1): > 100 µM (inactive)
GI50 (HT-29): > 100 µM (inactive)

CCOC(=O)NC(=O)c1cn(CCN2CCN(C(=O)CCCCCCCCCCC(=O)N3CCN(CCn4cc(C(=O)NC(=O)OCC)c(=O)[nH]c4=O)CC3)CC2)c(=O)[nH]c1=O
GI50 (SN12C): > 100 µM (inactive)
GI50 (LXFL 529): > 100 µM (inactive)
GI50 (OVCAR-3): > 100 µM (inactive)
GI50 (NCI-H23): > 100 µM (inactive)
GI50 (K562): > 100 µM (inactive)
GI50 (TK-10): > 100 µM (inactive)
GI50 (ACHN): > 100 µM (inactive)
GI50 (UACC-257): > 100 µM (inactive)
GI50 (HCT-116): > 100 µM (inactive)
GI50 (NCI-H522): 86.5 µM (inactive)
GI50 (CAKI-1): > 100 µM (inactive)
GI50 (IGROV-1): > 100 µM (inactive)
GI50 (HT-29): > 100 µM (inactive)
GI50 (NCI-H226): > 100 µM (inactive)

CC(C)(C)CC(C)(C)c1cc2c(O)c(c1)Cc1cc(C(C)(C)CC(C)(C)C)cc(c1O)Cc1cc(C(C)(C)CC(C)(C)C)cc(c1O)Cc1cc(C(C)(C)CC(C)(C)C)cc(c1O)Cc1cc(C(C)(C)CC(C)(C)C)cc(c1O)Cc1cc(C(C)(C)CC(C)(C)C)cc(c1O)C2
GI50 (SN12C): > 100 µM (inactive)
GI50 (LXFL 529): > 100 µM (inactive)
GI50 (OVCAR-3): > 100 µM (inactive)
GI50 (NCI-H460): > 100 µM (inactive)
GI50 (NCI-H23): > 100 µM (inactive)
GI50 (K562): > 100 µM (inactive)
GI50 (TK-10): > 100 µM (inactive)
GI50 (ACHN): > 100 µM (inactive)
GI50 (UACC-257): > 100 µM (inactive)
GI50 (UACC-62): > 100 µM (inactive)
GI50 (HCT-116): > 100 µM (inactive)
GI50 (NCI-H522): > 100 µM (inactive)
GI50 (IGROV-1): > 100 µM (inactive)
GI50 (HT-29): > 100 µM (inactive)
GI50 (KM-20L2): > 100 µM (inactive)

COc1cc2ccc1OCc1cccc(n1)COc1ccc(cc1OC)/C=N\CCNCCNCC/N=C\2
GI50 (SN12C): > 100 µM (inactive)
GI50 (OVCAR-3): > 100 µM (inactive)
GI50 (NCI-H460): > 100 µM (inactive)
GI50 (MDA-MB-435): > 100 µM (inactive)
GI50 (NCI-H23): > 100 µM (inactive)
GI50 (K562): > 100 µM (inactive)
GI50 (TK-10): > 100 µM (inactive)
GI50 (ACHN): > 100 µM (inactive)
GI50 (UACC-257): > 100 µM (inactive)
GI50 (UACC-62): > 100 µM (inactive)
GI50 (HCT-116): > 100 µM (inactive)
GI50 (NCI-H522): > 100 µM (inactive)
GI50 (CAKI-1): > 100 µM (inactive)
GI50 (IGROV-1): > 100 µM (inactive)
GI50 (HT-29): > 100 µM (inactive)
GI50 (BT-549): > 100 µM (inactive)
GI50 (NCI-H226): > 100 µM (inactive)
GI50 (PC-3): > 100 µM (inactive)

COc1ccc2c(n1)Sc1nc3ccccc3nc1N2
GI50 (SN12C): 21 µM (inactive)
GI50 (OVCAR-3): 32.4 µM (inactive)
GI50 (NCI-H460): 63.1 µM (inactive)
GI50 (MDA-MB-435): 55.1 µM (inactive)
GI50 (NCI-H23): 17.9 µM (inactive)
GI50 (K562): 30.3 µM (inactive)
GI50 (TK-10): 15.6 µM (inactive)
GI50 (ACHN): 23.2 µM (inactive)
GI50 (UACC-257): > 100 µM (inactive)
GI50 (UACC-62): 7.16 µM (inactive)
GI50 (HCT-116): 33.7 µM (inactive)
GI50 (NCI-H522): 78 µM (inactive)
GI50 (CAKI-1): 88.3 µM (inactive)
GI50 (IGROV-1): 5.92 µM (inactive)
GI50 (HT-29): 85.7 µM (inactive)
GI50 (BT-549): 41.6 µM (inactive)
GI50 (NCI-H226): 10.7 µM (inactive)
GI50 (PC-3): 89.5 µM (inactive)
